Data on one compound can be found in patent EP2928896B1, “SOLID FORM OF DIHYDRO-PYRIDO-OXAZINE DERIVATIVE” (NOVARTIS AG, priority 2012, dated 2014).

pIC50: −log10 of the molar value.

The term pIC50 denotes −log10 of the IC50, conventionally taken in molar units. Higher therefore signals a small IC50.

For assay [1], the target named is PI3K alpha (Homo sapiens, UniProt P42336). The assay can be described thus: Enzymatic PI3K alpha isoform inhibition (lipid kinase activity, Kinase-Glo luminescence / ATP depletion). In kind it is biochemical. From the text: The reaction is started by the addition of PI3 kinase, e.g. PI3 kinase δ.
The reaction is started by the addition of ATP.
(Kinase-Glo measures the ATP left after a reaction by luminescence.)

The target of assay [2] is T1, PI3K delta (Homo sapiens, UniProt O00329).
T1 construct: for the full-length p110-d subunit are generated and fused by overlapping PCR; p85 iSH2 (inter SH2 domain) fusion partner (N); His tag (C); made in house; host or cells: baculovirus; Tn5 (Trichoplusia ni) or TiniPro insect cells
Nature of the assay: Enzymatic PI3K delta isoform inhibition (lipid kinase activity, Kinase-Glo luminescence / ATP depletion). It is filed as biochemical.

The target of assay [3] is T2, PI3Kδ (Homo sapiens, UniProt O00329).
T2 construct: expressed in transfected cells
T2 sequence (O00329 1-1044): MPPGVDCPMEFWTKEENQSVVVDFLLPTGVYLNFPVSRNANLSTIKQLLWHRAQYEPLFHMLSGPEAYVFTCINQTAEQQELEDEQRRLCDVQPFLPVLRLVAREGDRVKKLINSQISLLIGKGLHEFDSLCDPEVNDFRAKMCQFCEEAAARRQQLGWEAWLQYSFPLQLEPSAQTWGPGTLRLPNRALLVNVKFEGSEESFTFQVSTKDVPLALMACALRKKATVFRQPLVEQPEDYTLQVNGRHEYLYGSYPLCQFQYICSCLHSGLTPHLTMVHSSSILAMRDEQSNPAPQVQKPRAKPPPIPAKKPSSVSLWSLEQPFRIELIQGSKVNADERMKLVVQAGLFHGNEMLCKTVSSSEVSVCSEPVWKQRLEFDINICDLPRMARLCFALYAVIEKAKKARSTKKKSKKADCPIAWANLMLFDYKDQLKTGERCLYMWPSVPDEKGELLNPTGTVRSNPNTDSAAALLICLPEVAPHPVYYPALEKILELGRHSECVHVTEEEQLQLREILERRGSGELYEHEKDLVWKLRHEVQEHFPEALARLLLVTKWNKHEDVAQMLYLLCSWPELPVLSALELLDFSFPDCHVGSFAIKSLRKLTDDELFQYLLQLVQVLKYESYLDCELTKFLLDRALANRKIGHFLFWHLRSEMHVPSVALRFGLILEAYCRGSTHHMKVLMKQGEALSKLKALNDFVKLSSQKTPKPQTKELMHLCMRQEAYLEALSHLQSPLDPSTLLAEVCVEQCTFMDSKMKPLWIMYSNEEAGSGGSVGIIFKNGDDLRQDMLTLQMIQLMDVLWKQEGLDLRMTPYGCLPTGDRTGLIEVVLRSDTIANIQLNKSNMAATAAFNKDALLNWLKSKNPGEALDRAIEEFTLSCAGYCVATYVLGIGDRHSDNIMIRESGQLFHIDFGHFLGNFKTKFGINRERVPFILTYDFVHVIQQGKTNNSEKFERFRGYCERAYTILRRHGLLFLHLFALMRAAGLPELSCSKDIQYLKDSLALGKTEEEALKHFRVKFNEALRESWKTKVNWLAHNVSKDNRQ
Nature of the assay: PI3K-mediated Akt 1/2 (S473) phosphorylation in Rat-1 cells overexpressing myristoylated PI3K delta (AlphaScreen SureFire). It is filed as cell-based. On the procedure: Rat-1 cells stably overexpressing a myristoylated form of the catalytic subunit of human phosphoinositide-3 kinase (PI3K) alpha, beta or delta were plated in 384-well plates at a density of 7500 (PI3K alpha), 6200 (PI3K beta), or 4000 (PI3K delta) cells in 30ul complete growth medium (Dulbecco's modified Eagle's medium (DMEM high glucose) supplemented with 10% (v/v) fetal bovine serum, 1% (v/v) MEM non essential amino acids, 10mM HEPES, 2mM L-glutamine, 10 µg/mL puromycin and 1% (v/v) Penicillin/Streptomycin) and were incubated at 37%C / 5%CO2 / 95% humidity for 24h. Compounds were diluted in 384-well compound plates to obtain 8-point serial dilutions for 40 test compounds in 90% DMSO, as well as 4 reference compounds plus 16 high controls and 16 low (inhibited) controls. Predilution plates were prepared by dispensing pipetting 250 nl of compound solutions into 384-well polypropylen plates using a Hummingwell nanoliter dispensor. Compounds were prediluted by the addition of 49.75 ul complete growth medium. 10ul of prediluted compound solution were transferred to the cell plate using a 384-well pipettor, resulting in a final DMSO concentration of 0.11%. […]
For detection of p-AKT(Ser473), the SureFire® p-Akt 1/2 (Ser473) Assay Kit (PerkinElmer, U.S.A) was used. […] The plate was read on an AlphaScreen® compatible plate reader, using standard AlphaScreen® settings.
Background: In Alpha technology, singlet oxygen from a donor bead excites a nearby acceptor bead.

Chain of PI3K alpha (P42336 with tags, fused parts or gaps limits assumed): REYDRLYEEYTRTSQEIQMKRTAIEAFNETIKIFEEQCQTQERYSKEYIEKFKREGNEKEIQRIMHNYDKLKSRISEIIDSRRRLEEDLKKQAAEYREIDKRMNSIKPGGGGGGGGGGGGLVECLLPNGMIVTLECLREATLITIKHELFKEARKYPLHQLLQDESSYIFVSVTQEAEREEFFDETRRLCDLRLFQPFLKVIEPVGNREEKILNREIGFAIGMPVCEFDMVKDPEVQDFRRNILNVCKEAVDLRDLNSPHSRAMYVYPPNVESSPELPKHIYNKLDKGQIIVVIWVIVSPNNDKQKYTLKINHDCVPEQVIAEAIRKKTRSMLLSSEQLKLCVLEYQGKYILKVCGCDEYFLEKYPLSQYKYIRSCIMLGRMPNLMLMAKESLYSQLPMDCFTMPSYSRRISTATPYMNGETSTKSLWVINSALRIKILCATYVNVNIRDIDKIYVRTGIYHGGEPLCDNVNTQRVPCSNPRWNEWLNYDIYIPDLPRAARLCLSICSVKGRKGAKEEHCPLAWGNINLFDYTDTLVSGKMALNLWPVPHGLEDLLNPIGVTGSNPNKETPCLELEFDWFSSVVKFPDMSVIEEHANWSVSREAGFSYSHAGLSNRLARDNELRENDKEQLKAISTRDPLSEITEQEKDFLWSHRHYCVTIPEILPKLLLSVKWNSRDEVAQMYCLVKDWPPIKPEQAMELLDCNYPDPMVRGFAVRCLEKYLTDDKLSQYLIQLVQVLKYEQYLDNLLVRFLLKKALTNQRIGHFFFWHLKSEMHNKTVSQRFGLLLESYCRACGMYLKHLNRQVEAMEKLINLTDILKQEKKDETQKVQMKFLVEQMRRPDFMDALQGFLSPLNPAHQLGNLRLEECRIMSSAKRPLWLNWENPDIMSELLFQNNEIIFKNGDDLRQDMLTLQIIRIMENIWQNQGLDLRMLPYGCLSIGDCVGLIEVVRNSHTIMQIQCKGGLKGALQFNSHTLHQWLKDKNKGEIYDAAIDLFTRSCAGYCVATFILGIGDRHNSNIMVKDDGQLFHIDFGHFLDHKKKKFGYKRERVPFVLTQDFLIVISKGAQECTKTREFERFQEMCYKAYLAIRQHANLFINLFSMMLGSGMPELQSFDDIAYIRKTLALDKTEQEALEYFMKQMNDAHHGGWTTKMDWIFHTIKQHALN
T1 sequence (O00329 with tags, fused parts or gaps limits assumed): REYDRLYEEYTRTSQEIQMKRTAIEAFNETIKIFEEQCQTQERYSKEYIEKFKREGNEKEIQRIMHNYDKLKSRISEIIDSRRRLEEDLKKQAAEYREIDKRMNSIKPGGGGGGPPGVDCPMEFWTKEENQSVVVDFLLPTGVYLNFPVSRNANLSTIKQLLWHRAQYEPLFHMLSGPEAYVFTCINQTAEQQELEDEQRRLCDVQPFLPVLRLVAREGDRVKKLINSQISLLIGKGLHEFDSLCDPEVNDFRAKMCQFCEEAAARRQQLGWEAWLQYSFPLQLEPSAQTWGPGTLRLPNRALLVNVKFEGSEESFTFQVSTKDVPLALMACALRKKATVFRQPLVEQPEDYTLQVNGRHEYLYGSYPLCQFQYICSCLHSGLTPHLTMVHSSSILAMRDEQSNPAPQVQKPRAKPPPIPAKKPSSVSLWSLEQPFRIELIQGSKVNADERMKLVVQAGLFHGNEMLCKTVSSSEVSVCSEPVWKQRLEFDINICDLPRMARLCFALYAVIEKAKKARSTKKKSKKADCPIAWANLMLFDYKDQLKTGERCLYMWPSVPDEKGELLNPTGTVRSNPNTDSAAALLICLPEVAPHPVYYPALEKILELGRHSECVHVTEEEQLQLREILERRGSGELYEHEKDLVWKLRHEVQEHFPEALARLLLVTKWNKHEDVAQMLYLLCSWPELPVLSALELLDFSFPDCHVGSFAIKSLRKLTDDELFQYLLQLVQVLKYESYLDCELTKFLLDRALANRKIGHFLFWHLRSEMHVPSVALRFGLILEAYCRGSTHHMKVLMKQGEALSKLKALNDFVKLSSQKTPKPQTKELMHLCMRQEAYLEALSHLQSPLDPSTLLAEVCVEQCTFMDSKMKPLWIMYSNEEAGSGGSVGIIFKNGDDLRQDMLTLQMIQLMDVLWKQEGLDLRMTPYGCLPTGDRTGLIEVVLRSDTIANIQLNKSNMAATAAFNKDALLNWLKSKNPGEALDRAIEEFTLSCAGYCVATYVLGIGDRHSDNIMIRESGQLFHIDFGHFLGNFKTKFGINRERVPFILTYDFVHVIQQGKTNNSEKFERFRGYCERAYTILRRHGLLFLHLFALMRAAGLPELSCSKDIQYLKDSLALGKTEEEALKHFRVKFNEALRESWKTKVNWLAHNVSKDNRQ

`COc1ncc(N2CCOc3cnc(O[C@H]4CCN(C(=O)C5CCS(=O)(=O)CC5)C4)cc32)cc1C` [Example F1, (1,1-Dioxo-hexahydro-1lambda*6*-thiopyran-4-yl)-{(S)-3-[1-(6-methoxy-5-methyl-pyridin-3-yl)-2,3-dihydro-1H-pyrido[3,4-b][1,4]oxazin-7-yloxy]-pyrrolidin-1-yl}-methanone]: the results for the pIC50 in assay [1], in assay [2] and in assay [3] were 6.96, 8.52 and 7.96, respectively.
